The test system of one data set is HT 144. In words: cytotoxicity of INO2 BA with and without BSO, HT 144. The format is cell-based. The following applies: Homo sapiens. On the procedure:
(§1) The concentration of BSO was 1 mM for all cell lines except HT 144, where the concentration was 0.25 mM. Cells were seeded in the recommended growth medium at a density of 1.5×10^4 cell/cm^2 into 2 cm^2 wells. Drugs were added simultaneously 4 hours after seeding, and incubation was continued for 48 hours at 37° C. in a 5% CO2 atmosphere. For assessment of drug effects cells were detached by trypsinization and counted in a hemacytometer.
(§2) Cell lines Nos. 1-4 were obtained from Dr. C. Benz, University of California, San Francisco. MDA 468 and MCF-7 human mammary cancer lines, MCF-7-B-ADR drug-resistant mammary cancer line, Du 145 drug-resistant human prostate cancer line, HT 144 human melanoma cell line, Hep-G2 human hepatocellular carcinoma line, and PC-12 rat pheochromocytoma line were obtained from the University of California Cell Culture Facility.

Another data set deals with U 937. Kind of data set: cytotoxicity of INO2 BA with and without BSO, U 937. The following applies: Homo sapiens, INO2 BA alone, 48 hours. In kind it is cell-based. As to the method: as §1, §2
The test system of data set [1] is SIV 22803 (AZT-resistant). Kind of data set: AZT-resistant SIV propagation (syncytia formation), SIV 22803. The format is cell-based. The following applies: for Syncytia: BSO 0. As to the method: CEM × 174 (3 × 10^5 /ml) were infected with equal doses o
SIVmac239 or virus isolates from SIVmac239infected rhesus macaques (MMU
23686, 22803). Three days postinfection, INO2 BA concentrations
ranging from 0 to 300 μM with or without BSO were added, and incubated
for an additional 3 days. Cell cultures were then examined for syncytia
formation. The number of syncytia in cell cultures was counted in
arbitration fields under 40× magnification and scored as follows: […]

Data set [2] can be described thus: metabolic conversion of INO2 BA to INH2 BA by 855-2 cells. In kind it is in vitro ADME. The following applies: 855-2 cells; 120 μM INO2 BA, 37° C.; read-out: rate of reduction of the nitro to the amino end-product. On the procedure: (§3) The cell metabolites of INO2 BA metabolism were identified. A suspension of 855-2 cells (6), 150×10^6 cells in ml of RPMI-1640 medium, was dosed with INO2 BA to a concentration of 120 μM, incubated at 37° C. for 18 hr, and then freeze-dried, extracted 3 times with EtOH (10 ml each time) for 30 min and centrifuged. The extract was rotary evaporated to dryness, redissolved in EtOH (3.0 ml), microfuged to remove small particles, and aliquots (200 μl) injected into HPLC. In control experiments, instead of incubating the drug-dosed cell suspension it was immediately frozen, freeze-dried and extracted. HPLC analyses were performed essentially as reported earlier, except the pH of the buffers was 4.3. Buki et al., FEBS Lett. 290:181-185 (1991). Upon sample injection the gradient started from 100%A to 100%B in 30 min, to 50%B/50%C in 15 min, to 100%C in 3 min. Retention times of synthetic standards were: 4-iodo-3-hydroxylaminobenzamide 18.7 min; 4-iodo-3-aminobenzamide ("INH2 BA") 24.7 min; INO2 BA 34.5 min; INOBA 36.5 min and 6,6'-diiodo-3,3'-dicarbamoylazoxybenzene 46.9 min.

A further data set relates to 855-2 cells. The description is as above. The format is in vitro ADME. The following applies: 120 μM INO2 BA, 18 hr, 37° C. As to the method: as §3
Another data set deals with pADPRT. Kind of data set: pADPRT zinc content / zinc ejection. In kind it is biochemical. The following applies: 25° C. As to the method:
FIG. 2A is a graph comparing the effects of NOBA and INOBA on the enzyme activity and zinc content of pADPRT. Inactivation was performed as described in Example III. In these experiments ^65 Zn^2+ -labeled pADPRT was used. The Zn^2+ content of pADPRT (upper panel) was determined as follows: two parallels of aliquots (4 μl) were pipetted into 500 μl of ice-cold washing solution (50 mM Tris, pH 7.7, 10 mM 2-mercaptoethanol and 0.5 mM EDTA) then filtered onto GF/C disks presoaked in washing solution (cold), quickly washed 4 times with 1 ml of ice-cold washing solution, dried, and the radioactivity determined. The protein-bound ^65 Zn^2+ is shown as percent of the untreated sample. Enzyme assays (lower panel) were performed as in FIG. 1.
For the release of Zn^2+ from transblotted pADPRT, the enzyme (3 μg per lane) was separated on SDS-PAGE, transblotted onto a nitrocellulose membrane, and renatured in the presence of ^65 ZnCl2. […] After incubation, 1 ml of the supernatant was counted for radioactivity, and the strips were washed 3 times with 2 ml of 50 mM Tris-HCl pH 7.4), 0.5 mM EDTA and 10 Mm 2-mercaptoethanol, and then dried and exposed to X-ray film. The intensity of the autoradiographic spots was quantitated by a scanner. […]

In another data set the test system is neutrophil granulocytes. The following applies: tumoricidal concentrations; cited from earlier work.
For data set [3], the system named is leukemic and other malignant human cells. The following applies: cited from earlier work.
Data set [4] deals with AZT-resistant rhesus macaque (MMU-23740)-derived SIV. The following applies: cited from earlier work.

Structures are written as SMILES. Some results are limits rather than exact numbers.

In the case of `NC(=O)c1ccc(I)c([N+](=O)[O-])c1` [INO2 BA, 4-iodo-3-nitrobenzamide], the IC100 in the data set with HT 144 (HT-144, 48 h, read-out: LD100) was 200 µM; in the data set on U 937 (read-out: LD100), 150 µM; in data set [1] (Simian immunodeficiency virus, 72 h, read-out: INO2 BA concentration abrogating cell fusion (syncytia)), > 100 µM. Further, the IC50 with HT 144 (HT-144, INO2 BA alone, 48 hours, read-out: I50) stood at 100 µM; in the data set with U 937 (read-out: I50), 65 µM. Also, the Syncytia result in data set [1] (INO2 BA 25 μM) is listed as “++ (10-20)”; in [1] (INO2 BA 50 μM) it was “++ (10-20)”; in data set [1] (INO2 BA 100 μM), “++ (10-20)”; in [1] (INO2 BA 200 μM), “- (0)”; in data set [1] (INO2 BA 300 μM) it was “- (0)”. Besides, in [1] (with 0.05 mM BSO), the “syncytia-blocking concentration of INO2 BA” value is 25 µM. In addition, the metabolised at 18 h, 120 µM in data set [2] is 2.2 ± 0.2%. In addition, the identified metabolite entry in the data set with 855-2 cells was “the only identified metabolite was INH2 BA”.
On to `NC(=O)c1cccc(N=O)c1` [NOBA, 3-nitrosobenzamide], for which the “time in which zinc ejection was complete” value with pADPRT was ≤ 2 h. Further, in the data set on neutrophil granulocytes, the “effect on superoxide formation by neutrophil granulocytes” value is reported as “relatively harmless”. The suppression of proliferation entry in data set [3] was “completely suppressed”. Also, the “inhibition of infectious cycle” value in [4] was “equally inhibited”.

The values above are taken from patent US5877185A, “Synergistic compositions useful as anti-tumor agents” (priority 1995, dated 1999).
